Counter-ions that a name gives are not always drawn.
molecular target: human FXa (Homo sapiens, UniProt P00742); test: Human activated blood coagulation factor X (FXa) inhibitory activity; type: biochemical; details: concentration at which 50% of FXa activity was inhibited; substrate S-2765, 37° C., absorbance at 405 nm
Method: (1) Human Activated Blood Coagulation Factor X (FXa) Inhibitory Activity
Experimental method: 225 μl of a 0.05 M Tris-HCl buffer (pH 8.3) containing 0.145 M sodium chloride and 2 mM calcium chloride, 5 μl of a sample (a test compound was dissolved in dimethyl sulfoxide) and 10 μl of human FXa (0.3 unit/ml) were added to a 96-well microplate and incubated at 37° C. for about 10 minutes. Then, 10 μl of a substrate (3 mM, S-2765) was added to the plate and incubated at 37° C. for 10 minutes. After stopping the reaction by adding 25 μl of a 50% aqueous acetic acid, a change in absorbance at 405 nm was measured with a spectrophotometer, and the concentration (IC50) at which 50% of FXa activity was inhibited was calculated.

Chain of human FXa (P00742 235-488 limits assumed): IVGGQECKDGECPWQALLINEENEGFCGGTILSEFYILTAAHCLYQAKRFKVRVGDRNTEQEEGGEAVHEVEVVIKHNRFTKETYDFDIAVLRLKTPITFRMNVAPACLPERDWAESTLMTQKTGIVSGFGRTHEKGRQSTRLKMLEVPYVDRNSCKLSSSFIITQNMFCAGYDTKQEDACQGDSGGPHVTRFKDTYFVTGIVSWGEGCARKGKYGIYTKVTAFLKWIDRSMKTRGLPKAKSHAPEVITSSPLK
Chain of human FXa (P00742 41-179 partner limits assumed): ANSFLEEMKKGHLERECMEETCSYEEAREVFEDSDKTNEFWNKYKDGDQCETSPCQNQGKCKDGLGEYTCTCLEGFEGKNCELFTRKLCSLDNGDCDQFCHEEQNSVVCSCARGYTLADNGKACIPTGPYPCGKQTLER

Row | Compound | IC50 [nM]
1 | Cc1nc(C)n(CCC2CCN(C(=O)CCS(=O)(=O)c3ccc4cc(Cl)ccc4c3)CC2)c1C [Example 109, 1-{3-[(6-Chloro-2-naphthyl)sulfonyl]propanoyl}-4-[2-(2,4,5-trimethyl-1H-imidazol-1-yl)ethyl]piperidine] | 45
2 | Cc1nccn1CCC1CCN(C(=O)CCS(=O)(=O)c2ccc3cc(Cl)ccc3c2)CC1 [Example 102, 1-{3-[(6-Chloro-2-naphthyl)sulfonyl]propanoyl}-4-[2-(2-methyl-1H-imdazol-1-yl)ethyl]piperidine hydrochloride] | 43
3 | Cc1ncc(C2CCN(C(=O)CCS(=O)(=O)c3ccc4cc(Cl)ccc4c3)CC2)n1C [Example 24, 1-{3-[(6-Chloro-2-naphthyl)sulufonyl]propanoyl}-4-(1,2-dimethyl-1H-imidazol-5-yl)piperidine] | 31
4 | Cc1ncc2n1CCN(C1CCN(C(=O)CCS(=O)(=O)c3ccc4cc(Cl)ccc4c3)CC1)C2=O [Example 38, 7-(1-{3-[(6-Chloro-2-naphthyl)sulfonyl]propanoyl}-4-piperidinyl)-3-methyl-6,7-dihydroimidazo[1,5-a]pyrazin-8(5H)-one] | 11

The next lines start with the values.

Row | IC50 [nM] | Compound
5 | 11 | Cc1ncn2c1C(=O)N(C1CCN(C(=O)CCS(=O)(=O)c3ccc4cc(Cl)ccc4c3)CC1)CC2 [Example 39, 7-(1-{3-[(6-Chloro-2-naphthyl)sulfonyl]propanoyl}-4-piperidinyl)-1-methyl-6,7-dihydoroimidazo[1,5-a]pyrazin-8(5H)-one]
6 | 7.2 | Cc1nc(C)n2c1CN(C1CCN(C(=O)CCS(=O)(=O)c3ccc4cc(Cl)ccc4c3)CC1)C2=O [Example 72, 2-(1-{3-[(6-Chloro-2-naphthyl)sulfonyl]propanoyl}-4-piperidinyl)-5,7-dimethyl-1,2-dihydro-3H-imidazo[1,5-c]imidazol-3-one]
7 | 7.1 | CCc1ncc2n1C(=O)N(C1CCN(C(=O)CCS(=O)(=O)c3ccc4cc(Cl)ccc4c3)CC1)C2 [Example 42, 2-(1-{3-[(6-Chloro-2-naphthyl)sulfonyl]propanoyl}-4-piperidinyl)-5-ethyl-1,2-dihydro-3H-imidazo[1,5-c]imidazol-3-one]
